Data as given in ChEMBL document CHEMBL2073834, “Transport of temocaprilat into rat hepatocytes: role of organic anion transporting polypeptide” (J Pharmacol Exp Ther, 1998).

How the values were obtained:
Type in all cases: functional, cell-based
[1] = molecular target: T1, Solute carrier organic anion transporter family member 1A1 (Rattus norvegicus, UniProt P46720); test: TP_TRANSPORTER: inhibition of Temocaprilat uptake (Temocaprilat: 0.1 uM, DBSB: 100 uM) in Oatp1-expressing COS-7 cells; settings: monkey, cos-7, 100 µM
T1 sequence (P46720 whole entry): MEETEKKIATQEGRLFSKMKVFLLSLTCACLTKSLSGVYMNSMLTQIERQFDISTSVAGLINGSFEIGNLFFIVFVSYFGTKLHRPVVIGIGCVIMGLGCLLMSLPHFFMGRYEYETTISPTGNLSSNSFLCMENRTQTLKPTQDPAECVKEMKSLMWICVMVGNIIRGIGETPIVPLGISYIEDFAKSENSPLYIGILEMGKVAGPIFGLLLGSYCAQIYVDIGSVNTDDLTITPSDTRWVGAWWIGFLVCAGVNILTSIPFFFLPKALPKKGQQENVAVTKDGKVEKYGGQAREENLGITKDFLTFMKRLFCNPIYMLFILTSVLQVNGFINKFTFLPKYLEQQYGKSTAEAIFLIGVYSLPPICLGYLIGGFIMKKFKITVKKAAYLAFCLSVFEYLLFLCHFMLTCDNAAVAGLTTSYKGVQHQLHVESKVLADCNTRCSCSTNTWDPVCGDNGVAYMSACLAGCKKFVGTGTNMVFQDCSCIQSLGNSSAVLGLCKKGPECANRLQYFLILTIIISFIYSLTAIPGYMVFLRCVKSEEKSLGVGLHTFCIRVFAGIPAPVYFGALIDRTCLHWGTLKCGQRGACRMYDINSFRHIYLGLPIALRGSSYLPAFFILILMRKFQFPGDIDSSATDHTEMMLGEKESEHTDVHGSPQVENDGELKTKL

[2] = molecular target: T1, Solute carrier organic anion transporter family member 1A1; test: TP_TRANSPORTER: inhibition of Temocaprilat uptake (Temocaprilat: 0.1 uM, E217betaG: 10 uM) in Oatp1-expressing COS-7 cells; settings: monkey, cos-7, 10 µM
[3] = substrate: C[C@]12CC[C@@H]3c4ccc(O)cc4CC[C@H]3[C@@H]1CC[C@@H]2O[C@@H]1O[C@H](C(=O)O)[C@@H](O)[C@H](O)[C@H]1O; test: (§1) TP_TRANSPORTER: uptake in Oatp1-expressing COS-7 cells
[4] = substrate: O=C(O)CN1C[C@@H](c2cccs2)SC[C@H](N[C@@H](CCc2ccccc2)C(=O)O)C1=O; test: as §1

O=C1OC(c2ccc(OS(=O)(=O)O)cc2)(c2ccc(OS(=O)(=O)O)cc2)c2c(Br)ccc(Br)c21 [DIBROMOSULFOPHTHALEIN]
Activity [1]: inhibitor [(at a rough estimate) 5 % of control]

C[C@]12CC[C@@H]3c4ccc(O)cc4CC[C@H]3[C@@H]1CC[C@@H]2O[C@@H]1O[C@H](C(=O)O)[C@@H](O)[C@H](O)[C@H]1O [ESTRADIOL 17B GLUCURONIDE]
Activity [2]: inhibitor [(at a rough estimate) 55 % of control]

B1: Solute carrier organic anion transporter family member 1A1 (Rattus norvegicus) (protein)
chain: T1 sequence (P46720 whole entry)
Km [3]: 11 µM | Km [4]: 46.7 µM
